{
  "source": "ChEMBL document CHEMBL5209897",
  "about": "“Affinity Phenotypic Cellular Literature for EUbOPEN Chemogenomics Library wave 3” (2023)",
  "key": {"[1]": {"target": "Lysine-specific demethylase 6A (Homo sapiens, UniProt O15550)", "assay": "Affinity Phenotypic Cellular interaction (Inhibition of TNF release (in LPS stimulated human macrophages derived from PBMC)) EUB0000217b KDM6A/UTX", "format": "functional", "parameters": "mode of action Pro-drug of GSK-J1, recommended concentration 100 nM"}, "[2]": {"target": "C-C chemokine receptor type 1 (Homo sapiens, UniProt P32246)", "sequence (P32246 whole entry)": "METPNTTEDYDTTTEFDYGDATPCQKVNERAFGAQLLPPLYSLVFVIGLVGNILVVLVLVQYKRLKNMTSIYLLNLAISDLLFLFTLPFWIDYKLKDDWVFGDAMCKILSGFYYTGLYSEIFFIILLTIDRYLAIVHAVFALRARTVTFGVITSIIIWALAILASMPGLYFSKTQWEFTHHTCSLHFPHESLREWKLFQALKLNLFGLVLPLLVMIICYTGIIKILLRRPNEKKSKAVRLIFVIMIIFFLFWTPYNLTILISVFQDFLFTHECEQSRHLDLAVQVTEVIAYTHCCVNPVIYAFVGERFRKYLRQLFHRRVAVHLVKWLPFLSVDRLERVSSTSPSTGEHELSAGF", "assay": "Affinity Phenotypic Cellular interaction (Functional cellular assay (measuring calcium flux in response to MIP-1a in CCR1-transfected cells)) EUB0000343a CCR1", "format": "cell-based", "parameters": "mode of action Negative control for BI-639667, recommended concentration 100 nM"}, "[3]": {"target": "Phosphatidylinositol 4,5-bisphosphate 3-kinase catalytic subunit beta isoform (Homo sapiens, UniProt P42338)", "assay": "Affinity Phenotypic Cellular interaction (MesoScale Discovery assay (AKT phoshorylation in MCF 7 cells)) EUB0000685a PIK3CB", "format": "cell-based", "parameters": "mode of action Inhibitor, recommended concentration 100 nM"}, "[4]": {"target": "Phosphatidylinositol 4,5-bisphosphate 3-kinase catalytic subunit gamma isoform (Homo sapiens, UniProt P48736)", "sequence (P48736 whole entry, canonical isoform)": "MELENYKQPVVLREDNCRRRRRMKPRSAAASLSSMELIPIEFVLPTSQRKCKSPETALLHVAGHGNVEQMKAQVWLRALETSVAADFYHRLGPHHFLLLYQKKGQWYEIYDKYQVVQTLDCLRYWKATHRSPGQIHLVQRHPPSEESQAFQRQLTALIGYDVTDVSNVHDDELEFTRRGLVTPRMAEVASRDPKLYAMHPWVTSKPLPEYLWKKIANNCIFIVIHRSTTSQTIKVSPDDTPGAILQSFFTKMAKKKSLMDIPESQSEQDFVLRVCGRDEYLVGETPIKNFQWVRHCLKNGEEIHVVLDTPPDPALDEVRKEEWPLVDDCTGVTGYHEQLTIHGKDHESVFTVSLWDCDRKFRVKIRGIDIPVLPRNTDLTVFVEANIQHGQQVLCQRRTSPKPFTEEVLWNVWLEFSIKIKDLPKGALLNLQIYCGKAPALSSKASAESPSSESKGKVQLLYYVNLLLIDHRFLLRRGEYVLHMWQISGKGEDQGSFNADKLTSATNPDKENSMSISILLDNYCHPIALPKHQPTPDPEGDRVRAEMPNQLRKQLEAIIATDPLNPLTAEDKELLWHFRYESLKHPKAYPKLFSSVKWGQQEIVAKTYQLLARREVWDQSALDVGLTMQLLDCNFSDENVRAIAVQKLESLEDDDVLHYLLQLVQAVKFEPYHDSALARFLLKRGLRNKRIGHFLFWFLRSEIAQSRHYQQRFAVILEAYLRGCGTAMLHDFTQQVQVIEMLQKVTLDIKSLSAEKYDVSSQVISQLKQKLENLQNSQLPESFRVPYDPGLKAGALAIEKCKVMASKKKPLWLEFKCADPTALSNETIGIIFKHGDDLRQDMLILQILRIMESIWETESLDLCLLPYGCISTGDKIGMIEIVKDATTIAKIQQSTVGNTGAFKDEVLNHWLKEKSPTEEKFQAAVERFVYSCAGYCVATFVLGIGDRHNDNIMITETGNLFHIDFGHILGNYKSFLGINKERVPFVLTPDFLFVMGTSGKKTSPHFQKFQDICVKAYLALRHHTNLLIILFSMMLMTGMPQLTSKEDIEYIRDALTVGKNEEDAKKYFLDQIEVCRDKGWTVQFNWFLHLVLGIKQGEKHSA", "assay": "Affinity Phenotypic Cellular interaction (MesoScale Discovery assay (AKT phoshorylation in MCF 7 cells)) EUB0000685a PIK3CG", "format": "cell-based", "parameters": "mode of action Inhibitor, recommended concentration 100 nM"}, "Activin receptor type-1B": {"target": "Activin receptor type-1B (Homo sapiens, UniProt P36896)", "sequence (P36896 whole entry)": "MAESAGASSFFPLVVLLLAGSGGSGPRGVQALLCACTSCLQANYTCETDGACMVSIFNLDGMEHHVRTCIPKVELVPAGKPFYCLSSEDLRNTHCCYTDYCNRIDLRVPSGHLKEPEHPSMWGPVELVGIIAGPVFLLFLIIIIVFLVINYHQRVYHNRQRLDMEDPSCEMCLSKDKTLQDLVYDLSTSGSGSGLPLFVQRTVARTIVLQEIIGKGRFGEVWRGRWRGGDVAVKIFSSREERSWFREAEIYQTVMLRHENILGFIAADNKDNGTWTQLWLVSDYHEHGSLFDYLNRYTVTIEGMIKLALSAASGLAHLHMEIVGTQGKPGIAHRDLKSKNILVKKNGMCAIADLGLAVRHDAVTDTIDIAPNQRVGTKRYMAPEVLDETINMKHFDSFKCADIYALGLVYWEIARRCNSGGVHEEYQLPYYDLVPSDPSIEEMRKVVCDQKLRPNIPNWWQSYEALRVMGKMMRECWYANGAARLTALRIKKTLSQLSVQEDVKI", "assay": "Affinity Phenotypic Cellular interaction (Western blot (inhibition of SMAD2/3 phosphorylation)) EUB0000312b ACVR1B", "parameters": "mode of action Inhibitor, recommended concentration 1 uM"}, "Integrin alpha-L": {"target": "Integrin alpha-L (Homo sapiens, UniProt P20701)", "sequence (P20701 whole entry)": "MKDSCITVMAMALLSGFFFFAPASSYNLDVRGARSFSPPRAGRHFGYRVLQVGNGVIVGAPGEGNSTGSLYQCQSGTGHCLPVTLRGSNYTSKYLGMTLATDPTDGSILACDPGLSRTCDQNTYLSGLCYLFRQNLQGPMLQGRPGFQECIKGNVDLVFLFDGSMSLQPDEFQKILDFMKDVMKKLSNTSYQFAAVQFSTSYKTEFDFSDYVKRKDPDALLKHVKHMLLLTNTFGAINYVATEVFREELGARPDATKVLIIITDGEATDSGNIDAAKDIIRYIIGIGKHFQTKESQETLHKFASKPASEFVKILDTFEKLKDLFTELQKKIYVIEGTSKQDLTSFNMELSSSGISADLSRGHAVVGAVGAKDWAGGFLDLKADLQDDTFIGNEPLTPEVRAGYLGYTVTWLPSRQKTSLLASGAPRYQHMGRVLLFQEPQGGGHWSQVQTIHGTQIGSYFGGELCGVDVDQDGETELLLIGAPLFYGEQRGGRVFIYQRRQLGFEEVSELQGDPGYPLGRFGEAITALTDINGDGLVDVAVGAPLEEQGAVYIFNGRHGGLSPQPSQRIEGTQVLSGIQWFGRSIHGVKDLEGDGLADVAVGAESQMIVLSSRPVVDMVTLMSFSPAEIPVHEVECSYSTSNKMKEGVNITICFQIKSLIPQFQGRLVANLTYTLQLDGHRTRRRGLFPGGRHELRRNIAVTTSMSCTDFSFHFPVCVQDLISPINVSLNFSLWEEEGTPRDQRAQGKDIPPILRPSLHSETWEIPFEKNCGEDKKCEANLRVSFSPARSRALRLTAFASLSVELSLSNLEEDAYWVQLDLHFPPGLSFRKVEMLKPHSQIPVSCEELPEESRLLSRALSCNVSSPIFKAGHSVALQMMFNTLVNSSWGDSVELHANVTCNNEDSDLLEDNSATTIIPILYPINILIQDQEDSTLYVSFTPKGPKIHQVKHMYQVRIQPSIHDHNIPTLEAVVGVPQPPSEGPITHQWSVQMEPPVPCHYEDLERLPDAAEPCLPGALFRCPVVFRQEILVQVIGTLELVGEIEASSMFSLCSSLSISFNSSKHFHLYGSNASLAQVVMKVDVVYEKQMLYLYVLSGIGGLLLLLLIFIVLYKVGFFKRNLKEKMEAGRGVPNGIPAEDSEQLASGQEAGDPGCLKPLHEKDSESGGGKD", "format": "functional", "parameters": "mode of action Negative control for BI-1950, recommended concentration 100 nM"}, "[5]": {"target": "Phosphatidylinositol 3-kinase catalytic subunit type 3 (Homo sapiens, UniProt Q8NEB9)", "assay": "Affinity Phenotypic Cellular interaction (Inhibition of PtdIns(3)P levels (at endosomes probed by suppression of endosomal localization of GFP–2×FYVEHrs; U2OS cells)) EUB0000631a PIK3C3", "format": "functional", "parameters": "mode of action Inhibitor, recommended concentration 1 uM"}, "[6]": {"target": "Serine/threonine-protein kinase 3 (Homo sapiens, UniProt Q13188)"}, "[7]": {"target": "Serine/threonine-protein kinase 4 (Homo sapiens, UniProt Q13043)", "assay": "Affinity Phenotypic Cellular interaction (Immunoblotting (phosphorylation of endogenous MOB1; LATS1/2; and YAP in human liver carcinoma (HepG2) cells)) EUB0000178b STK4", "parameters": "mode of action Inhibitor, recommended concentration 100 nM"}, "Aurora kinase B": {"target": "Aurora kinase B (Homo sapiens, UniProt Q96GD4)", "assay": "Affinity Phenotypic Cellular interaction (ELISA (histone H3 serine phosphorylation in A549 cells)) EUB0000674a AURKB", "format": "cell-based", "parameters": "mode of action Inhibitor, recommended concentration 1 uM"}, "Aurora kinase C": {"target": "Aurora kinase C (Homo sapiens, UniProt Q9UQB9)", "sequence (Q9UQB9 whole entry)": "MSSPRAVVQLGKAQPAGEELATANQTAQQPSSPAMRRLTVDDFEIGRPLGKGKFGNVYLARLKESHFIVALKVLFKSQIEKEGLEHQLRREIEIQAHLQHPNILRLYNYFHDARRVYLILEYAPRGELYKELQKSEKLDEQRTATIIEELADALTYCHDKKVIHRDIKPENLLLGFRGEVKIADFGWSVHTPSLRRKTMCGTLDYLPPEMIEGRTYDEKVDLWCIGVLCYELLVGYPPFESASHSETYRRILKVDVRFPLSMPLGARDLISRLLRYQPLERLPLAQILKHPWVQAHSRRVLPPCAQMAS", "assay": "Affinity Phenotypic Cellular interaction (ELISA (histone H3 serine phosphorylation in A549 cells)) EUB0000674a AURKC", "format": "cell-based", "parameters": "mode of action Inhibitor, recommended concentration 1 uM"}, "[8]": {"target": "Hepatocyte growth factor receptor (Homo sapiens) (UniProt P08581)", "assay": "Affinity Phenotypic Cellular interaction (Cell proliferation assay (in Hs746T cells)) EUB0000293b MET", "format": "functional, cell-based", "parameters": "recommended concentration 1 uM", "details": "Affinity Phenotypic Cellular Source Knowledge https://www.sgc-ffm.uni-frankfurt.de/#!specificprobeoverview/BAY-474"}, "[9]": {"target": "Bromodomain adjacent to zinc finger domain protein 2A (Homo sapiens, UniProt Q9UIF9)", "assay": "Affinity Phenotypic Cellular interaction (FRAP assay (displacement of BAZ2A/B from chromatin in SAHA-treated human U2OS cells, transfected with GFP-BAZ2A fusion construct)) EUB0000267b BAZ2A", "parameters": "mode of action Negative control for GSK2801, recommended concentration 1 uM"}, "[10]": {"target": "Histone-lysine N-methyltransferase EHMT1 (Homo sapiens, UniProt Q9H9B1)", "sequence (Q9H9B1 whole entry)": "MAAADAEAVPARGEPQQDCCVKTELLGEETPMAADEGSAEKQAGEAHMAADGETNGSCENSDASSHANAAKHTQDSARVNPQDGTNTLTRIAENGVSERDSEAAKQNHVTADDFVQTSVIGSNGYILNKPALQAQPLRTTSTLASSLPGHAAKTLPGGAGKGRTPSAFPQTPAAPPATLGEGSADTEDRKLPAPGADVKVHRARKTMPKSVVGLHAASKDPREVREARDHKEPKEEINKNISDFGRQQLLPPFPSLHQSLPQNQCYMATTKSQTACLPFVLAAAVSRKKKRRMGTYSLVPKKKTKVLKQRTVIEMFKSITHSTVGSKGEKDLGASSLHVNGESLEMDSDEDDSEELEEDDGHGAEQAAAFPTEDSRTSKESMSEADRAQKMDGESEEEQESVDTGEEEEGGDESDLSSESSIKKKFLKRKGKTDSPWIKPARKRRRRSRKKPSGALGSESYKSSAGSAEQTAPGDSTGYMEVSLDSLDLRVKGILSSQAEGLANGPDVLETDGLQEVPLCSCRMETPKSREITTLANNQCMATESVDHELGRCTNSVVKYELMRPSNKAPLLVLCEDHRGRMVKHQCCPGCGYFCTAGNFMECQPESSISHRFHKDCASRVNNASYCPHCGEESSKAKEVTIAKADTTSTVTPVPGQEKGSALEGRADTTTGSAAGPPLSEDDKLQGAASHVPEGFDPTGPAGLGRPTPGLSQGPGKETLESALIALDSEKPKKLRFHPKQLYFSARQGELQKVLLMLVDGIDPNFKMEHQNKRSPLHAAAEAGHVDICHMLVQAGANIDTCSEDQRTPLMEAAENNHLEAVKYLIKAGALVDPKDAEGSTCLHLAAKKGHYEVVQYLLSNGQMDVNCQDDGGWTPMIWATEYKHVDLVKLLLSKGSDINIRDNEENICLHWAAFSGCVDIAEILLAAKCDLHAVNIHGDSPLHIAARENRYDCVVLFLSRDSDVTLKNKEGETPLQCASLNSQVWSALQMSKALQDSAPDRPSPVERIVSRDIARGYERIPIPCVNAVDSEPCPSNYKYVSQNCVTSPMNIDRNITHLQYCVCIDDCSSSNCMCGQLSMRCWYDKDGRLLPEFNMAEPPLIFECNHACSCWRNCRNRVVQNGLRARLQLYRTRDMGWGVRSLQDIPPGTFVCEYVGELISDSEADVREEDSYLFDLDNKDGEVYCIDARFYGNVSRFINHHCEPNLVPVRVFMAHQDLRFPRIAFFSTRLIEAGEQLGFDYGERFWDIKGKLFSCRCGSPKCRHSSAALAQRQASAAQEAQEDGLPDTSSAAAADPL", "assay": "Affinity Phenotypic Cellular interaction (In-Cell Western assay (H3K9Me2 antibody immunofluorescence in PC3 cells)) EUB0000212b EHMT1/GLP", "format": "cell-based", "parameters": "mode of action Inhibitor, recommended concentration 1 uM"}, "[11]": {"assay": "Affinity Phenotypic Cellular interaction (CellTiter-Glo assay (Promega, cell proliferation assay in LNCaP cell line)) EUB0000215b EZH2"}, "[12]": {"target": "Histone-lysine N-methyltransferase KMT5C (Homo sapiens, UniProt Q86Y97)", "assay": "Affinity Phenotypic Cellular interaction (Western Blot (decrease in di-methylation of H4K20me in U20S cells)) EUB0000193b SUV420H2", "format": "cell-based", "parameters": "mode of action Inhibitor, recommended concentration 1 uM"}, "[13]": {"target": "Histone-lysine N-methyltransferase KMT5B (Homo sapiens, UniProt Q4FZB7)", "assay": "Affinity Phenotypic Cellular interaction (Western Blot (decrease in di-methylation of H4K20me in U20S cells)) EUB0000193b SUV420H1", "format": "cell-based", "parameters": "mode of action Inhibitor, recommended concentration 1 uM"}, "[14]": {"target": "Macrophage migration inhibitory factor (Homo sapiens) (UniProt P14174)", "sequence (P14174 whole entry)": "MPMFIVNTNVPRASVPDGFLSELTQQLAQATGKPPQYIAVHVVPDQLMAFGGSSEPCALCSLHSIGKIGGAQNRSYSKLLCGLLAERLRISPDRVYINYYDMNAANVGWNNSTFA", "assay": "Affinity Phenotypic Cellular interaction (Cell viability WST-8 assay (measuring inhibition of apoptosis)) EUB0000301b MIF", "format": "functional", "parameters": "recommended concentration 1 uM", "details": "Affinity Phenotypic Cellular Source Knowledge https://doi.org/10.1016/j.chembiol.2010.10.011, https://www.sgc-ffm.uni-frankfurt.de/#!specificprobeoverview/BTZO-1"}},
  "data": [
    {"smiles": "CCOC(=O)CCNc1cc(N2CCc3ccccc3CC2)nc(-c2ccccn2)n1", "values": [
      {"measurement": "IC50", "setting": "[1]", "value": 9000, "unit": "nM"}
    ]},
    {"smiles": "CS(=O)(=O)NCC[C@H](NC(=O)c1cncc2c1cnn2-c1ccc(F)cc1)c1ccnc(S(C)(=O)=O)c1", "note": "[BI 9307]", "values": [
      {"measurement": "IC50", "setting": "[2]", "value": "> 3000", "unit": "nM"}
    ]},
    {"smiles": "Cc1nc(-c2cn3c(n2)-c2ccc(-c4cnn(C(C)(C)C(N)=O)c4)cc2OCC3)n(C(C)C)n1", "note": "[TASELISIB]", "values": [
      {"measurement": "IC50", "setting": "[3]", "value": 4, "unit": "nM"},
      {"measurement": "IC50", "setting": "[4]", "value": 4, "unit": "nM"}
    ]},
    {"smiles": "Cc1cnc(-c2cc(Cl)ccc2F)cc1-n1c(=O)n(CC(N)=O)c2cnccc21", "note": "[TP-008]", "values": [
      {"measurement": "EC50", "setting": "Activin receptor type-1B", "value": "> 1000", "unit": "nM"}
    ]},
    {"smiles": "C[C@@]1(Cc2ccc(C#N)cc2)C(=O)N(c2cc(Cl)cc(Cl)c2)c2ncc(C(=O)NC3(c4nc(C5CCC5)no4)CC3)n21", "note": "[BI 9446]", "values": [
      {"measurement": "IC50", "setting": "Integrin alpha-L", "value": "> 1000", "unit": "nM"}
    ]},
    {"smiles": "CC(C)(O)CNc1ncc(-c2ccnc(Nc3ccnc(Cl)c3)n2)c(CC2CC2)n1", "values": [
      {"measurement": "IC50", "setting": "[5]", "value": "< 100", "unit": "nM"}
    ]},
    {"smiles": "CN1C(=O)c2sccc2N(C)c2nc(Nc3ccc(S(N)(=O)=O)cc3)ncc21", "values": [
      {"measurement": "EC50", "setting": "[6]", "value": "> 100", "unit": "nM"},
      {"measurement": "EC50", "setting": "[7]", "value": "> 100", "unit": "nM"}
    ]},
    {"smiles": "CCn1cc(-c2ccnc3[nH]c(-c4cccc(CN(C)C)c4)cc23)c(-c2ccc(NC(=O)N(C)C)cc2)n1", "note": "[GSK-1070916]", "values": [
      {"measurement": "EC50", "setting": "Aurora kinase B", "value": 46, "unit": "nM"},
      {"measurement": "EC50", "setting": "Aurora kinase C", "value": 46, "unit": "nM"}
    ]},
    {"smiles": "CC1=C(C#N)C(c2ccc3[nH]nc(C)c3c2)C(C#N)=C(C)N1", "values": [
      {"measurement": "IC90", "setting": "[8]", "value": 56, "unit": "nM"}
    ]},
    {"smiles": "CCCOc1ccn2c(C(C)=O)cc(-c3cccc(OC)c3)c2c1", "values": [
      {"measurement": "IC50", "setting": "[9]", "value": "> 100000", "unit": "nM"}
    ]},
    {"smiles": "COc1cc2c(cc1OCCCN1CCCC1)N=C(N)C21CCC1", "values": [
      {"measurement": "EC50", "setting": "[10]", "value": "< 3000", "unit": "nM"}
    ]},
    {"smiles": "CCCc1cc(C)[nH]c(=O)c1CNC(=O)c1cc(-c2ccnc(N3CCN(C)CC3)c2)cc2c1cnn2C(C)C", "values": [
      {"measurement": "IC50", "setting": "[11]", "value": 2900, "unit": "nM"}
    ]},
    {"smiles": "Clc1cc2c(NC3CCCC3)nnc(-c3ccncc3)c2cc1Cl", "values": [
      {"measurement": "EC50", "setting": "[12]", "value": 262, "unit": "nM"},
      {"measurement": "EC50", "setting": "[13]", "value": 262, "unit": "nM"}
    ]},
    {"smiles": "O=c1nc(-c2ccccn2)sc2ccccc12", "values": [
      {"measurement": "MEC1.5", "setting": "[14]", "value": 16, "unit": "nM"}
    ]}
  ]
}
